Assay results: patent publication US20240173339A1, “CANNABINOID FORMULATION FOR MANAGEMENT OF DEPRESSION, ANXIETY AND PTSD, AND CANNABINOID FORMULATION AS A SLEEP AID” (Zyus Life Sciences Inc., priority 2021, published 2024)
“And” between values parts separate entries of the source, which are not always exact repeats. Equal entries are not always repeated. Where two headings read alike, the source gives them in different places.

Key:
[1] = tested on: CRS mice; assay: Elevated Plus Maze (EPM) in chronic restraint stress mouse model; type: in vivo, BALB/c mice; conditions: i.p., CBD 10 mg/kg, CBC 20 mg/kg, or both
Protocol: (§1) D0-D14: Development of Depression Model by Chronic Restraint Stimulation (CRS) 1 hour per day.
(§2) D15: Treatment of Control and CRS mice (i.p injection of Cannabinoids or Vehicle).
D16: Elevated plus maze test (EPM) (Replicate 1).
D17: Elevated plus maze test (EPM) (Replicate 2).
(§3) Mouse Species. Adult male BALB/c mice were purchased from Charles River Laboratories.
(§4) Distress Model. Adult male BALB/c mice weighing 20-30 g were used for these experiments. Total 160 animals=10 animals/group×8 treatment groups×2 replicates. The mice groups were as following: • 1. Stress Group: Chronic Restraint Stimulation (CRS): N=80 mice • 2. Control Group: No distress […] CRS: N=80 mice
(§5) Group 2—Treatment with CBD (10 mg/kg)
(§6) Group 3—Treatment with CBC (20 mg/kg)
(§7) Group 4—Co-Treatment CBD (10 mg/kg)+CBC (20 mg/kg)
(§8) • Forced Swim Test (FST) • Elevated Plus Maze (EPM) • Open-Field Test (OFT) • Tail Suspension Test (TST)

[2] = tested on: CRS mice; assay: Forced Swim Test (FST) in CRS mice; type: in vivo, BALB/c mice; conditions: CBC 20 mg/kg; for anti-depressive effect (reduction of immobility time and greater movement distance in FST): CBD 10 mg/kg, CBD+CBC 10 and 20 mg/kg
Protocol: as §1, §2
D19: Forced swim test (FST).
as §3, §4, §5, §6, §7, §8

[3] = molecular target: CB2 receptors (Homo sapiens, UniProt P34972); conditions: read-out: affinity (Ki) for CB2 receptors; cited from earlier work
Sequence of CB2 receptors (P34972 whole entry): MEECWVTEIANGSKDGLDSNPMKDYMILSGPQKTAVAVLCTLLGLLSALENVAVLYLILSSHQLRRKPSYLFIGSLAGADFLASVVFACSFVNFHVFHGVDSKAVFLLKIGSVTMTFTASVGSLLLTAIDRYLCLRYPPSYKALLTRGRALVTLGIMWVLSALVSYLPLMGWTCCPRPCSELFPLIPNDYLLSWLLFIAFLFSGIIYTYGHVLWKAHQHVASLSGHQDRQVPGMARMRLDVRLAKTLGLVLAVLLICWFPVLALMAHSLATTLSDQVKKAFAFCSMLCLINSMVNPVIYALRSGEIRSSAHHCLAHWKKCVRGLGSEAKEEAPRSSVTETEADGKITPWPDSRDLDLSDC

[4] = molecular target: CB1 receptors (Homo sapiens, UniProt P21554); conditions: cited from earlier work
Sequence of CB1 receptors (P21554 whole entry): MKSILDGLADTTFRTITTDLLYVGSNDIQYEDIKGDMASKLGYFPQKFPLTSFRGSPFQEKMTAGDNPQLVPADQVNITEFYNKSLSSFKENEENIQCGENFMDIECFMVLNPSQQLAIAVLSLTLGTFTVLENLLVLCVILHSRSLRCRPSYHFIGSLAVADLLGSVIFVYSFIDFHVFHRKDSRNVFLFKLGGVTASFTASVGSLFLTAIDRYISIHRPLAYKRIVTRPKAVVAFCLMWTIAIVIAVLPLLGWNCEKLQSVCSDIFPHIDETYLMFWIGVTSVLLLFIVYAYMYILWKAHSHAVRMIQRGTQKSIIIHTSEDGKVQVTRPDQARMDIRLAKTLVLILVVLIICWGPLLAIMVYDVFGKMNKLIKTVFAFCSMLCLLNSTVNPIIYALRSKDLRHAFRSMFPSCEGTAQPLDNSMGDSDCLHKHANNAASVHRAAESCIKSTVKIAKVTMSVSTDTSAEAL

[5] = tested on: rodents; conditions: in vivo; cited from earlier work
[6] = tested on: rodents; conditions: cited from earlier work
[7] = in vivo; cited from earlier work
[8] = tested on: rats; conditions: cited from earlier work
[9] = cited from earlier work

Row | SMILES | mobility in Elevated Plus Maze (EPM) [1] | FST immobility compared to Vehicle ([2]; CBD+CBC 10+20 mg/kg) | anti-depressive effect (reduction of immobility time and greater movement distance in FST) [2] | Ki [3] | concentration at which it binds to CB1 receptors [4] | dose with significant antidepressant effect on FST [5] | dose with significant antidepressant effect on TST ([6]; in vivo) | dose causing decreased locomotor activity [7] | change on TST ([6]; at any dose) | dose showing anti-inflammatory and immunomodulatory effects [8] | anti-anxiety effect ([9]; high dose (100 mg/kg)) | anti-anxiety effect ([9]; low dose (10 mg/kg))
1 | CCCCCc1cc(O)c2c(c1)OC(C)(CCC=C(C)C)C=C2 (stereo not drawn) [CBC, cannabichromene] | significantly higher mobility | marked reduction of immobility | significant anti-depressive effect | ~100 nM | higher than 1 micromolar | 20 mg/kg | 40 mg/kg and 80 mg/kg | 80 mg/kg and 100 mg/kg |  |  |  | 
2 | C=C(C)[C@@H]1CCC(C)=C[C@H]1c1c(O)cc(CCCCC)cc1O [CBD, cannabidiol, reference compound] | significantly higher mobility |  | significant anti-depressive effect |  |  |  |  | 200 mg/kg | did not cause a significant change | 5 to 20 mg/kg | failed | effective
